Measurements: patent publication US10858331B1, “Ester nitrates derivatives of aromatic aldehydes with multiple pharmalogic properties to treat sickle cell disease” (VIRGINIA COMMONWEALTH UNIVERSITY, priority 2013, dated 2020)

Assays:
SS cells = experiment: In vitro RBC anti-sickling (morphological) study with SS cells; format: cell-based, human; conditions: SS cells, 1 h air then 4% O2, 37° C., 5 h; for inhibition at 5000 µM / inhibition at 500 µM / inhibition at 1000 µM / inhibition at 2000 µM: Homo sapiens, read-out: Inhibition of sickled cells; for inhibition at 5000 µM: 5.0 mM; for inhibition at 1000 µM: 1.0 mM; for inhibition at 2000 µM: 2.0 mM
Protocol: In vitro RBC morphological (anti-sickling) analysis was conducted at the Children's Hospital of Philadelphia (by Drs. Toshio Asakura and Osheiza Abdulmalik). The anti-sickling effects of 5HMF, TD-7 HCl, TD-7, TD-1, and TD-7-1 were studied by incubating suspensions of SS cells in the absence or presence of three different concentrations of the effectors in the presence of air for 1 h at 37° C. followed by incubation under 4% oxygen at 37° C. for 5 h. All samples were pre-incubated for 1 h with various compounds and then incubated under 4% O2 for 5 h. […] Table 5 represents the concentrations of the effectors along with the % inhibition of sickling cells. The hemolysates that had been prepared from SS cells after incubation with test compounds were also subjected to cation-exchange HPLC as previously reported (Abdulmalik et al., 2005).

cell-free Hb = target: T1, cell-free Hb (Homo sapiens, UniProt P68871+P69905); experiment: OEC study with normal cell-free Hb; format: biochemical; conditions: cell-free Hb 12 mg/mL, 2 mM compound; for N (Hill coefficient) / P50: n = 1; for ΔP50: versus control P50 12.5
T1 construct: Hemoglobin was prepared from centrifuging human blood; from tissue; host or cells: human blood (red cells lysed, Hb purified on DEAE sephacel)
T1 sequence (P69905 2-142 limits assumed): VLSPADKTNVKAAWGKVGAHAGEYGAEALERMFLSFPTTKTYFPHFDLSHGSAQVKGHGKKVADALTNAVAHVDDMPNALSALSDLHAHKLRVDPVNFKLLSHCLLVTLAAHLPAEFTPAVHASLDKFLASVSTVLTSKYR
T1 sequence (P68871 2-147 limits assumed): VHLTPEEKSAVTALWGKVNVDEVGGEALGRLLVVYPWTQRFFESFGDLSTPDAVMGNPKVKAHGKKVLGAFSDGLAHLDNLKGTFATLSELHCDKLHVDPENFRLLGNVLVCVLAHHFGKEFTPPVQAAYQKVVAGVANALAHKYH
Protocol: (§1) Studies were performed on compounds TD-7, TD-7-1, TD-8, TD-8-1, TD-9 and TD-9-1 using 100 mM stock solution in DMSO and normal whole blood (AA). TD-7, TD-8 and TD-9 are compounds with a hydroxymethyl group on the pyridine ring, while TD-7-1, TD-8-1 and TD-9-1 are the respective nitrate ester derivatives. The whole blood samples had hematocrit values ranging from 29-36%, and cell-free purified Hb of 10-12 g/dL in the absence or presence of effectors solubilized in DMSO at 2 mM or in some cases with varying compound concentration. The blood samples were incubated in an IL 237 tonometer (Instrumentation Laboratories, Inc., Lexington, Mass.) for about 5-7 min at 37° C. against a gas mixture containing O2 concentrations of 0.804%, 2.935% and 5.528% and allowed to equilibrate at O2 tensions of 6, 20 and 40 mmHg. After equilibration, the sample was removed via syringe and aspirated into a ABL 700 series table top automated blood gas analyzer (Radiometer America, Inc., Westlake, Ohio) to determine total hemoglobin (tHb), hematocrit (Hct), pH, pCO2, partial pressure of oxygen (pO2), and the Hb oxygen saturation values (sO2). Similar procedures were followed for concentration and time dependence studies. The measured values of pO2 and sO2 at each oxygen saturation level were then subjected to a non-linear regression analysis using the program Scientist (Micromath, Salt Lake City, Utah) with the following equation: […]
Hemoglobin was prepared from centrifuging human blood at 2500 rpms for 20 min at 4° C. The supernatant solution, debris and plasma were discarded from the centrifuge bottles, leaving behind RBCs. The RBCs were washed thrice with an excess volume of 0.9% NaCl, and once with 1.0% NaCl, each time centrifuging and discarding the supernatant solution. The RBCs were pooled together into a chilled flask and hemolyzed to free Hb by adding 1-2 volume excess of 50 mM Tris buffer, pH 8.6 (containing EDTA). The mixture was allowed to stand in ice for 30 min with occasional stirring. The Hb solution was centrifuged at 10,000 rpm for 2 h at 4° C. The supernatant Hb solution was pooled into a chilled flask and NaCl (40-60 mg/mL Hb solution) was slowly added with stirring. Hemoglobin solution was centrifuged at 10,000 rpm for 2 h at 4° C. to remove any cell stroma remnants. The clear supernatant Hb solution was pooled into a chilled flask and the “syrupy” pellet was discarded. Hemoglobin solution was dialyzed against 50 mM Tris buffer, pH 8.6 (containing EDTA) at 4° C. to remove NaCl and/or other low molecular weight impurities. Strips of standard cellulose dialysis tubing that had been washed 3-4 times and boiled for 10 min in deionized water were used for dialysis. The dialyzed Hb was further purified by ion-exchange chromatography using DEAE sephacel to exclude 2,3-DPG. The resin was equilibrated with 50 mM Tris buffer, pH 8.6, and the Hb solution was run through the column with 50 mM Tris buffer, pH 8.6 (containing EDTA). The pooled fractions were concentrated with an Amicon stirred cell (Amicon, Model 402), to a final HbA concentration of about 80-120 mg/mL. Concentrated HbA was stored at −80° C.
As a result of the low left-shifting activities of TD-8 and TD-9, as well as the nitrate ester derivatives, we further evaluated the activity of the compounds TD-1, TD-7, TD-7-1, TD-8, and TD-9 using cell-free Hb (devoid of any proteins, enzymes, plasma and cell membranes) to determine whether plasma protein or RBC membrane could have any effect on compound biological activity. Previous studies have shown limited effect of plasma protein and RBC membrane on SHMF activity. The same tonometry procedure used on whole blood was used with the cell-free hemoglobin using 2 mM compound and 12 mg/mL of Hb.

Hb [1] = target: T2, Hb (Homo sapiens, UniProt P68871+P69905); experiment: Oxygen equilibrium curve (OEC) study with normal whole blood (AA); format: cell-based; conditions: for ΔP50: versus DMSO control
T2 construct: normal whole blood (AA); from tissue; host or cells: normal whole blood (AA), red blood cells
T2 sequence (P69905 2-142 limits assumed): as the sequence (P69905 2-142 limits assumed) above
T2 sequence (P68871 2-147 limits assumed): as the sequence (P68871 2-147 limits assumed) above
Protocol: as §1
This equation was used to calculate P50 and Hill coefficient (N) values. Corresponding control experiments without the test compound (P50control) but containing DMSO were also performed.

Hb [2] = target: T2, Hb; experiment: Time-dependent OEC study with whole blood; format: cell-based; conditions: 0.5 mM; for P50: whole blood (Hct~34%); for N (Hill coefficient) / ΔP50: whole blood
Protocol: as §1
All samples were pre-incubated with whole blood (Hct˜34%) with the specified compounds 0.5 mM concentrations for the specified time. The control experiment without test compound (P50 (control)) contains the same concentration of DMSO used to solubilize the test solution (P50 (sample)).

[3] = 2 mM compound, 1.5 h incubation
[4] = 2 mM compound, 1.5 h incubation, 37° C.

Row | Compound | inhibition at 5000 µM (SS cells) [%] | inhibition at 500 µM (SS cells; 0.5 mM) [%] | inhibition at 1000 µM (SS cells) [%] | inhibition at 2000 µM (SS cells) [%] | N (Hill coefficient) (cell-free Hb) | P50 (cell-free Hb) [mmHg] | ΔP50 (cell-free Hb) [mmHg] | N (Hill coefficient) (Hb [1]; [3]) | P50 (Hb [1]; [4]) | ΔP50 (Hb [1]; [3]) [mmHg] | P50 (Hb [2]; incubation 1 h) [mmHg] | P50 (Hb [2]; incubation 2 h) [mmHg] | P50 (Hb [2]; incubation 4 h) [mmHg] | P50 (Hb [2]; incubation 6 h) [mmHg] | P50 (Hb [2]; incubation 10 h) [mmHg] | P50 (Hb [2]; incubation 12 h) [mmHg] | N (Hill coefficient) (Hb [2]; incubation 1 h) | ΔP50 (Hb [2]; incubation 1 h) [mmHg] | N (Hill coefficient) (Hb [2]; incubation 2 h) | ΔP50 (Hb [2]; incubation 2 h) [mmHg] | further results
1 | COc1cc(C=O)ccc1O [vanillin, reference compound] | 12 | – | – | – | – | – | – | – | – | – | – | – | – | – | – | – | – | – | – | – | –
2 | COc1ccc(C=O)c(OCc2cccc(CO)n2)c1 [TD-9, 2-((6-(Hydroxymethyl)pyridin-2-yl)methoxy)-4-methoxybenzaldehyde] | – | 26 | 35 | 57 | 1.7 | 6.8 | −5.7 | 1.6 ± 0.3^c† | 21.1 ± 1.2^c† mmHg | −10.2 | – | – | – | – | – | – | – | – | – | – | –
3 | COc1ccc(C=O)cc1OCc1cccc(CO)n1 [TD-8, 3-((6-(Hydroxymethyl)pyridine-2-yl)methoxy)-4-methoxybenzaldehyde] | – | 14 | 20 | 38 | 1.9 | 7.6 | −4.9 | 1.9 ± 0.1^c† | 25.9 ± 2.5^c† mmHg | −5.4 | – | – | – | – | – | – | – | – | – | – | –
4 | COc1ccc(OCc2cccc(CO)n2)c(C=O)c1 [TD-7, 2-((6-(Hydroxymethyl)pyridin-2-yl)methoxy)-5-methoxybenzaldehyde] | 100 | 95 | 95 | 100 | 1.8 | 7.6 | −4.9 | 1.3 ± 0.3^c† | 14.3 ± 4.3^c† mmHg | −17.0 | 28.2 ± 0.9 | 28.2 ± 0.8 | 28.8 ± 0.6 | 29.1 ± 0.6 | 30.6 ± 1.0 | 31.1 ± 0.7 | 2.2 ± 0.2 | −4.5 | 2.1 ± 0.1 | −4.8 | N (Hill coefficient) (Hb [2]; incubation 4 h): 2.1 ± 0.1; ΔP50 (Hb [2]; incubation 4 h): −4.3 mmHg; N (Hill coefficient) (Hb [2]; incubation 6 h): 2.0 ± 0.2; ΔP50 (Hb [2]; incubation 6 h): −5.1 mmHg; N (Hill coefficient) (Hb [2]; incubation 10 h): 2.0 ± 0.1; ΔP50 (Hb [2]; incubation 10 h): −4.5 mmHg; N (Hill coefficient) (Hb [2]; incubation 12 h): 2.0 ± 0.2; ΔP50 (Hb [2]; incubation 12 h): −5.0 mmHg; N (Hill coefficient) (Hb [1]; 0.1 mM compound): 2.5^d*; P50 (Hb [1]; 0.1 mM compound): 30.1^d* mmHg; ΔP50 (Hb [1]; 0.1 mM compound): −0.5 mmHg; N (Hill coefficient) (Hb [1]; 0.5 mM compound): 2.1^d*; P50 (Hb [1]; 0.5 mM compound): 25.9^d* mmHg; ΔP50 (Hb [1]; 0.5 mM compound): −4.7 mmHg; N (Hill coefficient) (Hb [1]; 1 mM compound): 1.7^d*; P50 (Hb [1]; 1 mM compound): 23.2^d* mmHg; ΔP50 (Hb [1]; 1 mM compound): −7.4 mmHg
5 | COc1ccc(OCc2cccnc2)c(C=O)c1 [INN-312, reference compound] | – | – | – | – | – | – | – | – | – | – | – | – | – | – | – | – | – | – | – | – | Inhibition of sickled cells (SS cells; 0.5 mM): 15%
6 | O=Cc1ccc(CO)o1 [Compound 5HMF, 5-(hydroxymethyl) furfural, reference compound] | 75 | 4 | 17 | 35 | 2.0 | 8.3 | −4.2 | 1.8 ± 0.1^c† | 20.2 ± 2.0^c† mmHg | −11.1 | 29.8 ± 0.2 | 29.2 ± 0.3 | 29.2 ± 0.1 | 30.0 ± 0.1 | 31.8 ± 0.1 | 32.8 ± 0.1 | 2.2 ± 0.1 | −2.9 | 2.2 ± 0.1 | −3.8 | N (Hill coefficient) (Hb [2]; incubation 4 h): 2.1 ± 0.1; ΔP50 (Hb [2]; incubation 4 h): −3.9 mmHg; N (Hill coefficient) (Hb [2]; incubation 6 h): 2.1 ± 0.1; ΔP50 (Hb [2]; incubation 6 h): −4.2 mmHg; N (Hill coefficient) (Hb [2]; incubation 10 h): 2.1 ± 0.1; ΔP50 (Hb [2]; incubation 10 h): −3.3 mmHg; N (Hill coefficient) (Hb [2]; incubation 12 h): 2.0 ± 0.1; ΔP50 (Hb [2]; incubation 12 h): −3.3 mmHg
